Among the data in patent US20230072683A1, “PYRIDO-PYRIMIDIN DERIVATIVES AND PHARMACEUTICAL COMPOSITION, FOR USE IN PREVENTING OR TREATING PI3 KINASE RELATED DISEASES, COMPRISING SAME AS ACTIVE INGREDIENT” (BORYUNG PHARMACEUTICAL CO., LTD, priority 2019, published 2023) are inhibition values, retold here.

In test [1] the target is PI3K-δ (PI3K(p1108/p857) (h)) (Homo sapiens, UniProt O00329). Nature of the test: Evaluation of inhibitory activity against PI3K-δ (HTRF kinase assay). To be noted: for inhibition at 0.01 µM: compound concentration 0.01 μM, read-out: EXP_VALUE(% Inhibition) PI3K-δ 0.01 μM; for inhibition at 0.1 µM: compound concentration 0.1 μM, read-out: EXP_VALUE(% Inhibition) PI3K-δ 0.1 μM. It counts as biochemical. The method in brief:
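HTRF read-out (665/620 nm ratio ×10000) used Eu-labelled anti-GST, GST-tagged GRP1 PH domain and streptavidin-allophycocyanin after EDTA/PIP3 stop.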

The target of test [2] is DNA-PK(h) (Homo sapiens, UniProt P78527). Nature of the test: Evaluation of inhibitory activity against DNA-PK (HTRF kinase assay, GST-cMyc-p53 substrate). To be noted: for inhibition at 0.01 µM: compound concentration 0.01 μM, read-out: EXP_VALUE(% Inhibition) DNA-PK(h) 0.01 μM; for inhibition at 0.1 µM: compound concentration 0.1 μM, read-out: EXP_VALUE(% Inhibition) DNA-PK(h) 0.1 μM. The test is classed as biochemical. The method in brief:
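Human DNA-PK with 50 μM GST-cMyc-p53 substrate; reaction started with Mg/ATP, run 30 min at room temperature, stopped with EDTA. Phospho-Ser15 p53 detected by HTRF (Eu anti-phospho-Ser15, d2 anti-GST), signal = 10000×(Em 665/Em 620).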

Chain of PI3K-δ (PI3K(p1108/p857) (h)) (O00329 whole entry, the tested form may be a part): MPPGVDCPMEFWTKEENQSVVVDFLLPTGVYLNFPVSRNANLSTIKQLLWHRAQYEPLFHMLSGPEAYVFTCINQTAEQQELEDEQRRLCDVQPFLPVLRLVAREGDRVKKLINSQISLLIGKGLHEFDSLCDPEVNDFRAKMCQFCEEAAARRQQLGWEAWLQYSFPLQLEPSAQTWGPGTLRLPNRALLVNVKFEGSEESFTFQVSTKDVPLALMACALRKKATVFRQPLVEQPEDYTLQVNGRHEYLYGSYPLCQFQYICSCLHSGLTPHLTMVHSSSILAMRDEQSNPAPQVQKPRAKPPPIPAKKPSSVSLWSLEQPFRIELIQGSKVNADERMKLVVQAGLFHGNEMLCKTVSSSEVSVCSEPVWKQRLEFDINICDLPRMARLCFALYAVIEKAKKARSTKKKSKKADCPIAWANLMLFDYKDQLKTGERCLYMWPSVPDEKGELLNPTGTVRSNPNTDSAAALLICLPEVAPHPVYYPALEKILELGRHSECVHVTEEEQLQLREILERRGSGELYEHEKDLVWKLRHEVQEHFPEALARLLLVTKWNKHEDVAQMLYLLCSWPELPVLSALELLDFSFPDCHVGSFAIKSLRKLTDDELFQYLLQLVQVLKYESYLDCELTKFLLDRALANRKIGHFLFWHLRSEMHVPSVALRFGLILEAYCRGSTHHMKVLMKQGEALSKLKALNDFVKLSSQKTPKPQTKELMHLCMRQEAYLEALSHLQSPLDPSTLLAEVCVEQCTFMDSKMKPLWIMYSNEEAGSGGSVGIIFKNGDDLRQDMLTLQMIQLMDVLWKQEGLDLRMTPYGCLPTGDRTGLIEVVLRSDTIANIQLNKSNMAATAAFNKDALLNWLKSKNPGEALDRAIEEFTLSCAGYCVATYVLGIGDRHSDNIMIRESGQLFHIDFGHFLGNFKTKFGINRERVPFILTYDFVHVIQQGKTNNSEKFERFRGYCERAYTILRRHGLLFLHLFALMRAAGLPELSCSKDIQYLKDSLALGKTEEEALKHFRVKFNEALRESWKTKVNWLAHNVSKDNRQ
Chain of PI3K-δ (PI3K(p1108/p857) (h)) (P27986 whole entry partner, the tested form may be a part): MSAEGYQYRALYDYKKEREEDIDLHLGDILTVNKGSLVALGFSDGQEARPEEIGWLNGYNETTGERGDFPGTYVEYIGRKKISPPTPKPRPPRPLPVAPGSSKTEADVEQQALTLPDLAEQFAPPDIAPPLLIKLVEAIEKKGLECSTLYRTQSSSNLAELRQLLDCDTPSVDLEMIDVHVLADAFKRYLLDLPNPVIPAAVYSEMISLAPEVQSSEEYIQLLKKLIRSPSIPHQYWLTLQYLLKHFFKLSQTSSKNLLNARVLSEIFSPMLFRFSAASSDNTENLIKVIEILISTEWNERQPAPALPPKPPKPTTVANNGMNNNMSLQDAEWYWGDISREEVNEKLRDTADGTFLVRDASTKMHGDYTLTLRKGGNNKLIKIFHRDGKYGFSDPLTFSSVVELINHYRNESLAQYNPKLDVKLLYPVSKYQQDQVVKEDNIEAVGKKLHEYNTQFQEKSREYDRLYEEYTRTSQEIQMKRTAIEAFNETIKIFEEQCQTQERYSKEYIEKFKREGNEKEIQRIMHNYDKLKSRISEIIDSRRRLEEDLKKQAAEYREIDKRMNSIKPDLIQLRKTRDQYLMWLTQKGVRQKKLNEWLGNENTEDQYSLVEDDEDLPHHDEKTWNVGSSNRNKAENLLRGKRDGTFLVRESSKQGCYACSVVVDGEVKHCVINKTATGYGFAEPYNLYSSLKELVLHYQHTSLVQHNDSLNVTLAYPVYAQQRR

Take `C[C@H](Nc1ncnc2[nH]ccc(=O)c12)c1c(Cl)c2cccc(-c3ccc(C4CCN(C)CC4)cc3)c2c(=O)n1-c1ccccc1` [Example 130, (S)-4-((1-(4-chloro-8-(4-(1-methylpiperidin-4-yl)phenyl)-1-oxo-2-phenyl-1,2-dihydroisoquinolin-3-yl)ethyl)amino)pyrido[2,3-d]pyrimidin-5(8H)-one]: in test [1], the inhibition at 0.01 µM came out at 85% and the inhibition at 0.1 µM turned out to be 89%. Also, in test [2], the inhibition at 0.01 µM stood at 98% and the inhibition at 0.1 µM is 102%.
The like results for `Cc1cc(F)ccc1-c1cccc2c(Cl)c([C@H](C)Nc3ncnc4[nH]ccc(=O)c34)n(-c3ccccc3)c(=O)c12` [Example 131, (S)-4-((1-(4-chloro-8-(4-fluoro-2-methylphenyl)-1-oxo-2-phenyl-1,2-dihydroisoquinolin-3-yl)ethyl)amino)pyrido[2,3-d]pyrimidin-5(8H)-one] were, in that order, 81%, 91%, 54% and 92%.
The like results for `C[C@H](Nc1ncnc2[nH]ccc(=O)c12)c1c(Cl)c2cccc(-c3cnc4c(c3)OCCO4)c2c(=O)n1-c1ccccc1` [Example 132, (S)-4-((1-(4-chloro-8-(2,3-dihydro-[1,4]dioxino[2,3-b]pyridin-7-yl)-1-oxo-2-phenyl-1,2-dihydroisoquinolin-3-yl)ethyl)amino)pyrido[2,3-d]pyrimidin-5(8H)-one] were, in that order, 91%, 94%, 89% and 102%.
The like results for `COc1ccc(-c2cccc3c(Cl)c([C@H](C)Nc4ncnc5[nH]ccc(=O)c45)n(-c4ccccc4)c(=O)c23)cn1` [Example 133, (S)-4-((1-(4-chloro-8-(6-methoxypyridin-3-yl)-1-oxo-2-phenyl-1,2-dihydroisoquinolin-3-yl)ethyl)amino)pyrido[2,3-d]pyrimidin-5(8H)-one] were, in that order, 78%, 88%, 79% and 99%.
Regarding `C[C@H](Nc1ncnc2[nH]ccc(=O)c12)c1c(Cl)c2cccc(-c3ccncc3)c2c(=O)n1-c1ccccc1` [Example 134, (S)-4-((1-(4-chloro-1-oxo-2-phenyl-8-(pyridin-4-yl)-1,2-dihydroisoquinolin-3-yl)ethyl)amino)pyrido[2,3-d]pyrimidin-5(8H)-one], in test [1], the inhibition at 0.01 µM is 85% and the inhibition at 0.1 µM turned out to be 92%. In addition, in test [2], the inhibition at 0.01 µM is 83% and the inhibition at 0.1 µM came to 97%.
In the case of `Cc1nc2cc(-c3cccc4c(Cl)c([C@H](C)Nc5ncnc6[nH]ccc(=O)c56)n(-c5ccccc5)c(=O)c34)ccc2[nH]1` [Example 135, (S)-4-((1-(4-chloro-8-(2-methyl-1H-benzo[d]imidazol-5-yl)-1-oxo-2-phenyl-1,2-dihydroisoquinolin-3-yl)ethyl)amino)pyrido[2,3-d]pyrimidin-5(8H)-one], in test [1], the inhibition at 0.01 µM amounted to 78% and the inhibition at 0.1 µM was found to be 97%. For the same compound, in test [2], the inhibition at 0.01 µM was 85% and the inhibition at 0.1 µM was 100%.
With `Cc1ncc(-c2cccc3c(Cl)c([C@H](C)Nc4ncnc5[nH]ccc(=O)c45)n(-c4ccccc4)c(=O)c23)cn1` [Example 136, (S)-4-((1-(4-chloro-8-(2-methylpyrimidin-5-yl)-1-oxo-2-phenyl-1,2-dihydroisoquinolin-3-yl)ethyl)amino)pyrido[2,3-d]pyrimidin-5(8H)-one], in test [1], the inhibition at 0.01 µM is 83% and the inhibition at 0.1 µM worked out at 93%. Moreover, in test [2], the inhibition at 0.01 µM stood at 75% and the inhibition at 0.1 µM was found to be 97%.
The like results for `C[C@H](Nc1ncnc2[nH]ccc(=O)c12)c1c(Cl)c2cccc(-c3ccc4nccnc4c3)c2c(=O)n1-c1ccccc1` [Example 137, (S)-4-((1-(4-chloro-1-oxo-2-phenyl-8-(quinoxalin-6-yl)-1,2-dihydroisoquinolin-3-yl)ethyl)amino)pyrido[2,3-d]pyrimidin-5(8H)-one] were, in that order, 84%, 92%, 87% and 100%.
The like results for `C[C@H](Nc1ncnc2[nH]ccc(=O)c12)c1c(Cl)c2cccc(-c3ccc(N4CCN(C(=O)OC(C)(C)C)CC4)cc3)c2c(=O)n1-c1ccccc1` [Example 138, tert-butyl(S)-4-(4-(4-chloro-1-oxo-3-(1-((5-oxo-5,8-dihydropyrido[2,3-d]pyrimidin-4-yl)amino)ethyl)-2-phenyl-1,2-dihydroisoquinolin-8-yl)phenyl)piperazin-1-carboxylate] were, in that order, 33%, 81%, 32% and 75%.
For the compound `C[C@H](Nc1ncnc2[nH]ccc(=O)c12)c1c(Cl)c2cccc(-c3ccc(C(=O)N(C)C)cc3)c2c(=O)n1-c1ccccc1` [Example 139, (S)-4-(4-chloro-1-oxo-3-(1-((5-oxo-5,8-dihydropyrido[2,3-d]pyrimidin-4-yl)amino)ethyl)-2-phenyl-1,2-dihydroisoquinolin-8-yl)-N, N-dimethylbenzamide], the inhibition at 0.01 µM in test [1] came to 51%; in test [2], 74%. Further, the inhibition at 0.1 µM was 94% in test [1] and 96% in test [2].
On to `C[C@H](Nc1ncnc2[nH]ccc(=O)c12)c1c(Cl)c2cccc(-c3cc(Cl)ccc3F)c2c(=O)n1-c1ccccc1` [Example 140, (S)-4-((1-(4-chloro-8-(5-chloro-2-fluorophenyl)-1-oxo-2-phenyl-1,2-dihydroisoquinolin-3-yl)ethyl)amino)pyrido[2,3-d]pyrimidin-5(8H)-one], for which, in test [1], the inhibition at 0.01 µM came out at 42% and the inhibition at 0.1 µM was determined as 87%. Also, in test [2], the inhibition at 0.01 µM was determined as 38% and the inhibition at 0.1 µM stood at 84%.
As to `C[C@H](Nc1ncnc2[nH]ccc(=O)c12)c1c(Cl)c2cccc(-c3ccc(C4CC4)cc3)c2c(=O)n1-c1ccccc1` [Example 141, (S)-4-((1-(4-chloro-8-(4-cyclopropylphenyl)-1-oxo-2-phenyl-1,2-dihydroisoquinolin-3-yl)ethyl)amino)pyrido[2,3-d]pyrimidin-5(8H)-one], in test [1], the inhibition at 0.01 µM turned out to be 39% and the inhibition at 0.1 µM is 79%. In test [2], the inhibition at 0.01 µM was 31% and the inhibition at 0.1 µM was 74%.
The like results for `C=Cc1cccc2c(Cl)c([C@H](C)Nc3ncnc4[nH]ccc(=O)c34)n(-c3ccccc3)c(=O)c12` [Example 142, (S)-4-((1-(4-chloro-1-oxo-2-phenyl-8-vinyl-1,2-dihydroisoquinolin-3-yl)ethyl)amino)pyrido[2,3-d]pyrimidin-5(8H)-one] were, in that order, 67%, 97%, 50% and 87%.
The like results for `CSc1ccc(-c2cccc3c(Cl)c([C@H](C)Nc4ncnc5[nH]ccc(=O)c45)n(-c4ccccc4)c(=O)c23)cc1` [Example 143, (S)-4-((1-(4-chloro-8-(4-(methylthio)phenyl)-1-oxo-2-phenyl-1,2-dihydroisoquinolin-3-yl)ethyl)amino)pyrido[2,3-d]pyrimidin-5(8H)-one] were, in that order, 48%, 94%, 25% and 80%.
The like results for `C[C@H](Nc1ncnc2[nH]ccc(=O)c12)c1c(Cl)c2cccc(-c3ccc(SC(C)(C)C)cc3)c2c(=O)n1-c1ccccc1` [Example 144, (S)-4-((1-(8-(4-(tert-butylthio)phenyl)-4-chloro-1-oxo-2-phenyl-1,2-dihydroisoquinolin-3-yl)ethyl)amino)pyrido[2,3-d]pyrimidin-5(8H)-one] were, in that order, 17%, 72%, 4% and 48%.
As to `C[C@H](Nc1ncnc2[nH]ccc(=O)c12)c1c(Cl)c2cccc(-c3ccc(C(=O)N4CCOCC4)cc3)c2c(=O)n1-c1ccccc1` [Example 145, (S)-4-((1-(4-chloro-8-(4-(morpholin-4-carbonyl)phenyl)-1-oxo-2-phenyl-1,2-dihydroisoquinolin-3-yl)ethyl)amino)pyrido[2,3-d]pyrimidin-5(8H)-one], the inhibition at 0.01 µM in test [1] came out at 88%; in test [2], 93%.
Regarding `C[C@H](Nc1ncnc2[nH]ccc(=O)c12)c1c(Cl)c2cccc(-c3cnc(OCc4ccccc4)nc3)c2c(=O)n1-c1ccccc1` [Example 146, (S)-4-((1-(8-(2-(benzyloxy)pyrimidin-5-yl)-4-chloro-1-oxo-2-phenyl-1,2-dihydroisoquinolin-3-yl)ethyl)amino)pyrido[2,3-d]pyrimidin-5(8H)-one], the inhibition at 0.01 µM in test [1] came out at 84%; in test [2], 35%.
The like results for `C[C@H](Nc1ncnc2[nH]ccc(=O)c12)c1c(Cl)c2cccc(-c3ccc(OCC(F)(F)F)nc3)c2c(=O)n1-c1ccccc1` [Example 147, (S)-4-((1-(4-chloro-1-oxo-2-phenyl-8-(6-(2,2,2-trifluoroethoxy)pyridin-3-yl)-1,2-dihydroisoquinolin-3-yl)ethyl)amino)pyrido[2,3-d]pyrimidin-5(8H)-one] were, in that order, 69% and 48%.
